Experimental findings from US20260297081A1, “COMPOUNDS AND METHODS OF TREATING CANCERS” (Cullgen Inc., priority 2023, published 2026) are described below.

The structures appear in SMILES notation. Some results are limits rather than exact numbers.

In this assay the test system is MCF7 cells. Briefly: Anti-proliferation (viability) of MCF7 cells (Table 7, FIG. 2B). The class given is cell-based. To be noted: Homo sapiens, MCF7, MCF7 cells, 3-6 days, 10-point serial dilution; read-out: GI IC50 in MCF-7.

Regarding `CC(=O)c1c(C)c2cnc(Nc3ccc(N4CCN(CCC(=O)N5CC(Nc6nc(NC(C)C)ccc6C(=O)Nc6ccc(N(C)C)nn6)C5)CC4)cn3)nc2n(C2CCCC2)c1=O` [CPD-303, 2-((1-(3-(4-(6-((6-acetyl-8-cyclopentyl-5-methyl-7-oxo-7,8-dihydropyrido[2,3-d]pyrimidin-2-yl)amino)pyridin-3-yl)piperazin-1-yl)propanoyl)azetidin-3-yl)amino)-N-(6-(dimethylamino)pyridazin-3-yl)-6-(isopropylamino)nicotinamide], the concentration for half-maximal inhibition (IC50) (usually the midpoint of a concentration-inhibition curve) is less than 50 nM. On to `CC(=O)c1c(C)c2cnc(Nc3ccc(N4CCN(CCC(=O)N5CC(Nc6nc(NC(C)C)ccc6C(=O)Nc6cn(C)c(C7CC7)n6)C5)CC4)cn3)nc2n(C2CCCC2)c1=O` [CPD-304, 2-((1-(3-(4-(6-((6-acetyl-8-cyclopentyl-5-methyl-7-oxo-7,8-dihydropyrido[2,3-d]pyrimidin-2-yl)amino)pyridin-3-yl)piperazin-1-yl)propanoyl)azetidin-3-yl)amino)-N-(2-cyclopropyl-1-methyl-1H-imidazol-4-yl)-6-(isopropylamino)nicotinamide], for which the IC50 was greater than 100 nM. Consider `[2H]C([2H])([2H])Nc1ccc(C(=O)Nc2cn(C)c(C3CC3)n2)c(NC2CC(NC(=O)CN3CCN(c4ccc(Nc5ncc6c(C)c(C(C)=O)c(=O)n(C7CCCC7)c6n5)nc4)CC3)C2)n1` (stereo not shown) [CPD-307, 2-((3-(2-(4-(6-((6-acetyl-8-cyclopentyl-5-methyl-7-oxo-7,8-dihydropyrido[2,3-d]pyrimidin-2-yl)amino)pyridin-3-yl)piperazin-1-yl)acetamido)cyclobutyl)amino)-N-(2-cyclopropyl-1-methyl-1H-imidazol-4-yl)-6-((methyl-d3)amino)nicotinamide], for which the IC50 was greater than 100 nM. Take `CCc1nc(NC(=O)c2ccc(NC)nc2NC2CC3(CC(NC(=O)CN4CCN(c5ccc(Nc6ncc7c(C)c(C(C)=O)c(=O)n(C8CCCC8)c7n6)nc5)CC4)C3)C2)cn1C` (stereo not shown) [CPD-308, 2-((6-(2-(4-(6-((6-acetyl-8-cyclopentyl-5-methyl-7-oxo-7,8-dihydropyrido[2,3-d]pyrimidin-2-yl)amino)pyridin-3-yl)piperazin-1-yl)acetamido)spiro[3.3]heptan-2-yl)amino)-N-(2-ethyl-1-methyl-1H-imidazol-4-yl)-6-(methylamino)nicotinamide]: the IC50 was greater than 100 nM.

`CCCc1nc(NC(=O)c2ccc(NC)nc2NC2CC3(CC(NC(=O)CN4CCN(c5ccc(Nc6ncc7c(C)c(C(C)=O)c(=O)n(C8CCCC8)c7n6)nc5)CC4)C3)C2)cn1C` (stereo not shown) [CPD-309, 2-((6-(2-(4-(6-((6-acetyl-8-cyclopentyl-5-methyl-7-oxo-7,8-dihydropyrido[2,3-d]pyrimidin-2-yl)amino)pyridin-3-yl)piperazin-1-yl)acetamido)spiro[3.3]heptan-2-yl)amino)-N-(1-methyl-2-propyl-1H-imidazol-4-yl)-6-(methylamino)nicotinamide]: the IC50 was greater than 100 nM. Consider `CNc1ccc(C(=O)Nc2cn(C)c(C3CCC3)n2)c(NC2CC3(CC(NC(=O)CN4CCN(c5ccc(Nc6ncc7c(C)c(C(C)=O)c(=O)n(C8CCCC8)c7n6)nc5)CC4)C3)C2)n1` (stereo not shown) [CPD-310, 2-((6-(2-(4-(6-((6-acetyl-8-cyclopentyl-5-methyl-7-oxo-7,8-dihydropyrido[2,3-d]pyrimidin-2-yl)amino)pyridin-3-yl)piperazin-1-yl)acetamido)spiro[3.3]heptan-2-yl)amino)-N-(2-cyclobutyl-1-methyl-1H-imidazol-4-yl)-6-(methylamino)nicotinamide], for which the concentration for half-maximal inhibition (IC50) is greater than 100 nM. To `CNc1ccc(C(=O)Nc2ccc(N(C)C)nn2)c(NC2CC(OC(=O)N3CCN(c4ccc(Nc5ncc6c(C)c(C(C)=O)c(=O)n(C7CCCC7)c6n5)nc4)CC3)C2)n1` (stereo not shown) [CPD-311, 3-((3-((6-(dimethylamino)pyridazin-3-yl)carbamoyl)-6-(methylamino)pyridin-2-yl)amino)cyclobutyl 4-(6-((6-acetyl-8-cyclopentyl-5-methyl-7-oxo-7,8-dihydropyrido[2,3-d]pyrimidin-2-yl)amino)pyridin-3-yl)piperazine-1-carboxylate] belongs greater than 100 nM.
